This is an account of results in patent US20070031534A1, “Pet food for reducing food allergy reactions” (priority 2004, published 2007).

In the assay the test system is dogs subject to food allergies. The experiment in a line: Owner-marked itching scores of dogs subject to food allergies fed with the dog food. Format: in vivo. The following applies: case No.1, before feeding with the dog food. As to the method: A dog food (dog food for food allergy) composed of raw materials as listed in Table 3 and Table 4 below was prepared according to the above Example 1. Dogs subject to food allergies were fed with this dog food and then the itching scores of these dogs were determined.
The following 2 cases are described in detail. (a) Detailed description of case No.1 (i) Changes (−1) in itching scores

On to `C[C@]12C=CC(=O)C=C1CC[C@@H]1[C@@H]2[C@@H](O)C[C@@]2(C)[C@H]1CC[C@]2(O)C(=O)CO` [predonine], for which the “itching on administration of steroid drug” value is “further suppressed”.
